Bounds are passed on as bounds.

Test [1] concerns the target T1, system Xc^− (Homo sapiens, UniProt Q9UPY5).
T1 sequence (Q9UPY5 1-501): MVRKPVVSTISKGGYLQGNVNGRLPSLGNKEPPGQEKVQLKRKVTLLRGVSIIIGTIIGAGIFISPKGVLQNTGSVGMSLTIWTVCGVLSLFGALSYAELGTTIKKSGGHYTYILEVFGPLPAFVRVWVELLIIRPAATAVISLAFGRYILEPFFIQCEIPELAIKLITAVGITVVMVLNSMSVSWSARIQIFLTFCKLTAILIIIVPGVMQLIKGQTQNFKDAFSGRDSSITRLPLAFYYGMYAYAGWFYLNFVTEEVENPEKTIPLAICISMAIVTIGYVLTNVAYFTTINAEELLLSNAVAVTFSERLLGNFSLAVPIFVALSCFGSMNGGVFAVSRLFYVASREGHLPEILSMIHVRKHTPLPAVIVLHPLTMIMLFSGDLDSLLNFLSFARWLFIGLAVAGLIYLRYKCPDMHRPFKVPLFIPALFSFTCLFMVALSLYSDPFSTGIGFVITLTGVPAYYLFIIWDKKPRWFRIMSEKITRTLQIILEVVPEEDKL
T1 sequence (P08195 1-529 partner): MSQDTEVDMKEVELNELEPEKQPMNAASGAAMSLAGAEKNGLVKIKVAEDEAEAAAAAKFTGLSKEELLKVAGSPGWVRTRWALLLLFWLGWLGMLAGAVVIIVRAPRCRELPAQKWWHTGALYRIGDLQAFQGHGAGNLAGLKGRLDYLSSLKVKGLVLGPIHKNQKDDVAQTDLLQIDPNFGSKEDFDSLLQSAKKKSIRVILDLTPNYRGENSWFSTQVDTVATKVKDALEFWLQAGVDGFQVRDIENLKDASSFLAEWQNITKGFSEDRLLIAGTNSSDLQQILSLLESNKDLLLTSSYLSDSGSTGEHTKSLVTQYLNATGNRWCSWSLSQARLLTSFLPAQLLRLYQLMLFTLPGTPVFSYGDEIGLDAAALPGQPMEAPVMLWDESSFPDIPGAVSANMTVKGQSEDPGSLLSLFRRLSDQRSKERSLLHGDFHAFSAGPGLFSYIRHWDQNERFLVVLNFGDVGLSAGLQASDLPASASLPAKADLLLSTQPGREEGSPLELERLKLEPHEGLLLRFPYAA
The test is described as follows: Cystine-induced glutamate release assay. It is filed as cell-based. The arrangement: endogenous in cells; host or cells: H4 cells. The note with it: H4 cells, sodium-free HEPES buffer, 50 μM L-Cystine, 2 hours, Amplex Red glutamate readout; read-out: pIC50 Cystine-induced glutamate release assay (converted). Put shortly:
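IC50 (reported as pIC50) normalized to DMSO 1% and Erastin 50 μM controls, from Amplex Red fluorescence of glutamate exported into supernatant. H4 cells were washed into sodium-free buffer to exclude EAAT transport, then given compound with 50 μM L-cystine for 2 h in the incubator.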

The target in test [2] is T1, system Xc^−. The test can be described thus: [^14C]L-Cystine uptake assay. It is filed as cell-based. More on the design: endogenous in cells; host or cells: H4 cells. The note with it: H4 cells, sodium-free HEPES buffer, 0.5 μM L-[14C]Cystine and 4.5 μM L-Cystine, 1 hour at 37° C.; read-out: pIC50 [^14C] L-Cystine uptake assay (converted). The gist of the method:
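Compound effect is given as pIC50, taken between controls of 1% DMSO and 50 μM Erastin. Human H4 cells were pretreated 15 min with compound in sodium-free buffer, then took up 0.5 μM [14C]cystine with 4.5 μM cold cystine for 1 hour at 37° C, read by scintillation proximity counting.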

As to `Cc1cc2c(cn1)-c1cc(F)ccc1CC(=O)N2CC(=O)Nc1ccc(C(F)(F)F)cc1` [#33, 2-(10-fluoro-3-methyl-6-oxo-7H-pyrido[4,3-d][3]benzazepin-5-yl)-N-[4-(trifluoro-methyl)phenyl] acetamide], the IC50 on system Xc^− [1] was 39.8 to 100 nM; at system Xc^− [2] it was 15.8 to 39.8 nM.

For the compound `Cc1cc2c(cn1)-c1ccc(F)cc1CC(=O)N2CC(=O)Nc1ccc(C(F)(F)F)cc1` [#34, 2-(9-fluoro-3-methyl-6-oxo-7H-pyrido[4,3-d][3]benzazepin-5-yl)-N-[4-(trifluoro-methyl)phenyl] acetamide], the values for the IC50 at system Xc^− [1] and at system Xc^− [2] were 100 to 501 nM and 39.8 to 100 nM, respectively.

For the compound `Cc1cc2c(cn1)-c1cccc(F)c1CC(=O)N2CC(=O)Nc1ccc(C(F)(F)F)cc1` [#35, 2-(8-fluoro-3-methyl-6-oxo-7H-pyrido[4,3-d][3]benzazepin-5-yl)-N-[4-(trifluoro-methyl)phenyl] acetamide], the IC50 is 39.8 to 100 nM at system Xc^− [1] and 15.8 to 39.8 nM on system Xc^− [2].

In the case of `Cc1cc2c(cn1)-c1cccnc1CC(=O)N2CC(=O)Nc1ccc(C(F)(F)F)cc1` [#36, 2-(5-methyl-9-oxo-4,8,12-triazatricyclo[9.4.0.0^2,7]pentadeca-1(11),2(7),3,5,12,14-hexaen-8-yl)-N-[4-(trifluoromethyl)phenyl]acetamide], the IC50 at system Xc^− [1] is 39.8 to 100 nM; at system Xc^− [2] it was 100 to 501 nM.

Take `O=C(CN1C(=O)Cn2nccc2-c2cnc(Cl)cc21)Nc1ccc(C(F)(F)F)cc1` [#37, 2-(12-chloro-8-oxo-5,6,9,13-tetrazatricyclo[8.4.0.0^2,6]tetradeca-1(10),2,4,11,13-pentaen-9-yl)-N-[4-(trifluoromethyl)phenyl]acetamide]: the IC50 at system Xc^− [1] and on system Xc^− [2] was 100 to 501 nM each time.

Turning to `Cc1cc2c(c(F)n1)-c1ncccc1CC(=O)N2CC(=O)Nc1ccc(C(F)(F)F)cc1` [#38, 2-(15-fluoro-13-methyl-9-oxo-3,10,14-triazatricyclo[9.4.0.0^2,7]pentadeca-1(11),2(7),3,5,12,14-hexaen-10-yl)-N-[4-(trifluoromethyl)phenyl]acetamide], the IC50 at system Xc^− [1] and on system Xc^− [2] was 100 to 501 nM each time.

With `Cc1cc2c(c(F)n1)-c1ccccc1CC(=O)N2CC(=O)Nc1ccc(C(F)(F)F)cc1` [#39, 2-(1-fluoro-3-methyl-6-oxo-7H-pyrido[4,3-d][3]benzazepin-5-yl)-N-[4-(trifluorometh-yl)phenyl]acetamide], the IC50 at system Xc^− [1] and on system Xc^− [2] was 15.8 to 39.8 nM in each case.

`Cc1cc2c(c(F)n1)-c1cccnc1CC(=O)N2CC(=O)Nc1ccc(C(F)(F)F)cc1` [#40, 2-(3-fluoro-5-methyl-9-oxo-4,8,12-triaza-tricyclo[9.4.0.0^2,7]pentadeca-1(11),2(7), 3,5,12,14-hexaen-8-yl)-N-[4-(trifluoro-methyl)phenyl]acet-amide]: the results for the IC50 at system Xc^− [1] and on system Xc^− [2] were 15.8 to 39.8 nM and less than 15.8 nM, respectively.

In the case of `Cc1cc2c(c(F)n1)-c1ncccc1CC(=O)N2CC(=O)Nc1ccc(Cl)c(F)c1` [#41, N-(4-chloro-3-fluoro-phenyl)-2-(15-fluoro-13-methyl-9-oxo-3,10,14-triazatricyclo [9.4.0.0^2,7]pentadeca-1(11),2(7),3,5,12,14-hexaen-10-yl)acetamide], the IC50 on system Xc^− [1] and at system Xc^− [2] was 100 to 501 nM in each case.

Consider `Cc1cc2c(c(F)n1)-c1sccc1CC(=O)N2CC(=O)Nc1ccc(C(F)(F)F)cc1` [#42, 2-(14-fluoro-12-meth-yl-8-oxo-3-thia-9,13-diazatricyclo[8.4.0.0^2,6]tetradeca-1(10),2(6), 4,11,13-pentaen-9-yl)-N-[4-(trifluorometh-yl)phenyl]acetamide], for which the IC50 at system Xc^− [1] and at system Xc^− [2] was 39.8 to 100 nM in each case.

Turning to `O=C(CN1C(=O)Cc2ncccc2-c2c1cc(F)nc2F)Nc1ccc(C(F)(F)F)cc1` [#43, 2-(3,5-difluoro-9-oxo-4,8,12-triazatricyclo [9.4.0.0^2,7]pentadeca-1(11),2,4,6,12,14-hexaen-8-yl)-N-[4-(trifluoromethyl)phen-yl]acetamide], the IC50 on system Xc^− [1] is 39.8 to 100 nM; on system Xc^− [2], 100 to 501 nM.

On to `Cc1cc2c(cn1)-c1ccc(Cl)cc1CC(=O)N2CC(=O)Nc1ccc(C(F)(F)F)cc1` [#44, 2-(9-chloro-3-methyl-6-oxo-7H-pyrido[4,3-d][3]benzazepin-5-yl)-N-[4-(trifluoromethyl)phenyl]acetamide], for which the IC50 on system Xc^− [1] and at system Xc^− [2] was 39.8 to 100 nM in each case.

In the case of `Cc1cncc2c1-c1ccccc1CC(=O)N2CC(=O)Nc1ccc(C(F)(F)F)cc1` [#45, 2-(1-methyl-6-oxo-7H-pyrido[3,4-d][3]benzazepin-5-yl)-N-[4-(trifluoromethyl)phenyl]acetamide], the IC50 on system Xc^− [1] is 39.8 to 100 nM; at system Xc^− [2], 100 to 501 nM.

Regarding `CN1CCN(c2cc3c(cn2)-c2ccccc2CC(=O)N3CC(=O)Nc2ccc(C(F)(F)F)cc2)CC1=O` [#46, 2-[3-(4-methyl-3-oxo-piperazin-1-yl)-6-oxo-7H-pyrido[4,3-d][3]benzazepin-5-yl]-N-[4-(trifluoromethyl)phenyl]acetamide], the IC50 at system Xc^− [1] is 39.8 to 100 nM; at system Xc^− [2], 15.8 to 39.8 nM.

Consider `O=C(CN1C(=O)Cc2ccccc2-c2cnc(N3CC(F)(F)C3)cc21)Nc1ccc(C(F)(F)F)cc1` [#47, 2-[3-(3,3-difluoroazetidin-1-v)-6-oxo-7H-pyrido[4,3-d][3]benzazepin-5-yl]-N-[4-(trifluoromethyl)phenyl]acetamide], for which the IC50 is 39.8 to 100 nM on system Xc^− [1] and 15.8 to 39.8 nM on system Xc^− [2].

`Cc1cc2c(cn1)-c1ccnn1CC(=O)N2CC(=O)Nc1ccc(C(F)(F)F)cc1` [#48, 2-(12-methyl-8-oxo-5,6,9,13-tetrazatricyclo[8.4.0.0^2,6]tetradeca-1(10),2,4,11,13-pentaen-9-yl)-N-[4-(trifluoromethyl)phenyl]acetamide]: the IC50 on system Xc^− [1] and at system Xc^− [2] was 100 to 501 nM throughout.

Turning to `Cc1cc2c(c(Cl)n1)-c1ccccc1CC(=O)N2CC(=O)Nc1ccc(C(F)(F)F)cc1` [#49, 2-(1-chloro-3-methyl-6-oxo-7H-pyrido[4,3-d][3]benzazepin-5-yl)-N-[4-(trifluoromethyl)phenyl]acetamide], the figures for the IC50 on system Xc^− [1] and on system Xc^− [2] were 15.8 to 39.8 nM and less than 15.8 nM, respectively.

Regarding `Cc1cc2c(c(Cl)n1)-c1ccccc1CC(=O)N2CC(=O)Nc1ccc(Cl)c(F)c1` [#50, N-(4-chloro-3-fluoro-phenyl)-2-(1-chloro-3-methyl-6-oxo-7H-pyrido[4,3-d][3]benz-azepin-5-yl)acetamide], the IC50 at system Xc^− [1] was 39.8 to 100 nM; at system Xc^− [2] it was less than 15.8 nM.

On to `O=C(CN1C(=O)Cc2cc(F)ccc2-c2c1ccnc2Cl)Nc1ccc(C(F)(F)F)cc1` [#51, 2-(1-chloro-9-fluoro-6-oxo-7H-pyrido[4,3-d][3]benzazepin-5-yl)-N-[4-(trifluoromethyl)-phenyl]acetamide], for which the figures for the IC50 on system Xc^− [1] and on system Xc^− [2] were 39.8 to 100 nM and less than 15.8 nM, respectively.

For the compound `O=C(CN1C(=O)Cc2ncccc2-c2c1cc(Cl)c(F)c2Cl)Nc1ccc(C(F)(F)F)cc1` [#52, 2-(9,11-dichloro-10-fluoro-6-oxo-5H-pyrido[2,3-d][1]benz-azepin-7-yl)-N-[4-(trifluoromethyl)phen-yl]acetamide], the IC50 at system Xc^− [1] and at system Xc^− [2] was 100 to 501 nM throughout.

As for `O=C(CN1C(=O)Cc2ncccc2-c2c1ccnc2Cl)Nc1ccc(C(F)(F)F)cc1` [#53, 2-(3-chloro-9-oxo-4,8,12-triazatricyclo [9.4.0.0^2,7]pentadeca-1(11),2(7),3,5,12,14-hexaen-8-yl)-N-[4-(trifluoromethyl)phen-yl]acetamide], the IC50 on system Xc^− [1] was 100 to 501 nM; on system Xc^− [2], 39.8 to 100 nM.

With `N#Cc1ccc2c(c1F)-c1cccnc1CC(=O)N2CC(=O)Nc1ccc(C(F)(F)F)cc1` [#54, 2-(10-cyano-11-fluoro-6-oxo-5H-pyrido[2,3-d][1]benzazepin-7-yl)-N-[4-(trifluoromethyl)-phenyl]acetamide], the IC50 is 100 to 501 nM on system Xc^− [1] and 39.8 to 100 nM on system Xc^− [2].

The values are drawn from patent US20260217708A1, “FUSED BENZAZEPINE DERIVATIVES FOR USE IN THE TREATMENT OF CANCER AND EPILEPSY” (UCB BIOPHARMA SRL, priority 2023, published 2026).
